Assay results from patent US20260285850A1, “SUBSTITUTED OXAZOLIDINONES AND IMIDAZOLINONES AS HERBICIDES” (FMC CORPORATION, priority 2023, published 2026).

Columns and labels:
Format in all cases: in vivo
[1] = tested on: barnyardgrass (Echinochloa crus-galli); test: Test A preemergence soil spray, visual injury rating 0-100; conditions: 10 days, 0 = no effect, 100 = complete control
How it was run: (§1)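 Compound in a non-phytotoxic, surfactant-containing solvent is applied either as a directed soil spray before seedlings emerge or onto emerged plants 2-10 cm tall; pots hold a loam-sand blend. Plants grow 10 days under greenhouse conditions and are rated by eye against untreated controls (0 no effect, 100 complete control).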

[2] = tested on: blackgrass (Alopecurus myosuroides); test: as above; conditions: 10 days, 0 = no effect, 100 = complete control
How it was run: as §1

corn (Zea mays) [3] = test: as above; conditions: 10 days, 0 = no effect, 100 = complete control
How it was run: as §1

[4] = tested on: green foxtail (Setaria viridis); test: as above; conditions: 10 days, 0 = no effect, 100 = complete control
How it was run: as §1

kochia (Bassia scoparia) [5] = test: as above; conditions: 10 days, 0 = no effect, 100 = complete control
How it was run: as §1

[6] = tested on: oat, wild (wild oat, Avena fatua); test: as above; conditions: 10 days, 0 = no effect, 100 = complete control
How it was run: as §1

[7] = tested on: palmer (palmer amaranth, palmer pigweed, Amaranthus palmeri); test: as above; conditions: 10 days, 0 = no effect, 100 = complete control
How it was run: as §1

[8] = tested on: ryegrass, Italian (italian ryegrass, Lolium multiflorum); test: as above; conditions: 10 days, 0 = no effect, 100 = complete control
How it was run: as §1

soybean (Glycine max) [9] = test: as above; conditions: 10 days, 0 = no effect, 100 = complete control
How it was run: as §1

[10] = tested on: wheat (Triticum aestivum); test: as above; conditions: 10 days, 0 = no effect, 100 = complete control
How it was run: as §1

[11] = tested on: barnyardgrass (Echinochloa crus-galli); test: Test A postemergence application, visual injury rating 0-100; conditions: Postemergence, 10 days, 0 is no effect, 100 is complete control
How it was run: as §1

[12] = tested on: blackgrass (Alopecurus myosuroides); test: as above; conditions: Postemergence, 10 days, 0 is no effect, 100 is complete control
How it was run: as §1

corn (Zea mays) [13] = test: as above; conditions: Postemergence, 10 days, 0 is no effect, 100 is complete control
How it was run: as §1

[14] = tested on: galium (catchweed bedstraw, Galium aparine); test: as above; conditions: Postemergence, 10 days, 0 is no effect, 100 is complete control
How it was run: as §1

[15] = tested on: green foxtail (Setaria viridis); test: as above; conditions: Postemergence, 10 days, 0 is no effect, 100 is complete control
How it was run: as §1

[16] = tested on: horseweed (Erigeron canadensis); test: as above; conditions: Postemergence, 10 days, 0 is no effect, 100 is complete control
How it was run: as §1

kochia (Bassia scoparia) [17] = test: as above; conditions: Postemergence, 10 days, 0 is no effect, 100 is complete control
How it was run: as §1

[18] = tested on: oat, wild (wild oat, Avena fatua); test: as above; conditions: Postemergence, 10 days, 0 is no effect, 100 is complete control
How it was run: as §1

[19] = tested on: palmer (palmer amaranth, palmer pigweed, Amaranthus palmeri); test: as above; conditions: Postemergence, 10 days, 0 is no effect, 100 is complete control
How it was run: as §1

[20] = tested on: ragweed (common ragweed, Ambrosia artemisiifolia); test: as above; conditions: Postemergence, 10 days, 0 is no effect, 100 is complete control
How it was run: as §1

[21] = tested on: ryegrass, Italian (italian ryegrass, Lolium multiflorum); test: as above; conditions: Postemergence, 10 days, 0 is no effect, 100 is complete control
How it was run: as §1

soybean (Glycine max) [22] = test: as above; conditions: Postemergence, 10 days, 0 is no effect, 100 is complete control
How it was run: as §1

[23] = tested on: wheat (Triticum aestivum); test: as above; conditions: Postemergence, 10 days, 0 is no effect, 100 is complete control
How it was run: as §1

[24] = tested on: barnyardgrass (Echinochloa crusgalli); test: Test B flooded paddy test, visual plant response rating 0-100; conditions: 250 g ai/ha, Flood, applied to paddy water, evaluated after 13 days
How it was run: (§2)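 Visual scores versus untreated controls were recorded 13 days after treatment of greenhouse-held plants. At the 2-leaf stage, pots were flooded 3 cm above the soil surface and compounds added straight to the water.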

[25] = tested on: ducksalad (Heteranthera limosa); test: as above; conditions: 250 g ai/ha, Flood, applied to paddy water, evaluated after 13 days
How it was run: as §2

rice (Oryza sativa) = test: as above; conditions: 250 g ai/ha, Flood, applied to paddy water, evaluated after 13 days
How it was run: as §2

[26] = tested on: sedge, umbrella (small-flower umbrella sedge, Cyperus difformis); test: as above; conditions: 250 g ai/ha, Flood, applied to paddy water, evaluated after 13 days
How it was run: as §2

CC1(C(=O)NC2C=CC(C(=O)OCC#N)C2)CN(c2cc(F)cc(F)c2)C(=O)O1 (centres unmarked) [Compound 35]
Barnyardgrass plant response rating (0 to 100 scale) ([1]; 125 g ai/ha): 100 | Barnyardgrass plant response rating (0 to 100 scale) ([1]; 500 g ai/ha): 100 | Blackgrass plant response rating (0 to 100 scale) ([2]; 125 g ai/ha): 70 | Blackgrass plant response rating (0 to 100 scale) ([2]; 500 g ai/ha): 90 | Corn plant response rating (0 to 100 scale) (corn (Zea mays) [3]; 125 g ai/ha): 90 | Corn plant response rating (0 to 100 scale) (corn (Zea mays) [3]; 500 g ai/ha): 100 | Foxtail, Green plant response rating (0 to 100 scale) ([4]; 125 g ai/ha): 90 | Foxtail, Green plant response rating (0 to 100 scale) ([4]; 500 g ai/ha): 100 | Kochia plant response rating (0 to 100 scale) (kochia (Bassia scoparia) [5]; 125 g ai/ha): 90 | Kochia plant response rating (0 to 100 scale) (kochia (Bassia scoparia) [5]; 500 g ai/ha): 90 | Oat, Wild plant response rating (0 to 100 scale) ([6]; 125 g ai/ha): 90 | Oat, Wild plant response rating (0 to 100 scale) ([6]; 500 g ai/ha): 90 | Amaranth, Palmer plant response rating (0 to 100 scale) ([7]; 125 g ai/ha): 100 | Amaranth, Palmer plant response rating (0 to 100 scale) ([7]; 500 g ai/ha): 100 | Ryegrass, Italian plant response rating (0 to 100 scale) ([8]; 125 g ai/ha): 100 | Ryegrass, Italian plant response rating (0 to 100 scale) ([8]; 500 g ai/ha): 100 | Soybean plant response rating (0 to 100 scale) (soybean (Glycine max) [9]; 125 g ai/ha): 80 | Soybean plant response rating (0 to 100 scale) (soybean (Glycine max) [9]; 500 g ai/ha): 90 | Wheat plant response rating (0 to 100 scale) ([10]; 125 g ai/ha): 90 | Wheat plant response rating (0 to 100 scale) ([10]; 500 g ai/ha): 100 | Barnyardgrass plant response rating (0 to 100 scale) ([11]; 125 g ai/ha): 100 | Barnyardgrass plant response rating (0 to 100 scale) ([11]; 500 g ai/ha): 100 | Blackgrass plant response rating (0 to 100 scale) ([12]; 125 g ai/ha): 90 | Blackgrass plant response rating (0 to 100 scale) ([12]; 500 g ai/ha): 100 | Corn plant response rating (0 to 100 scale) (corn (Zea mays) [13]; 125 g ai/ha): 100 | Corn plant response rating (0 to 100 scale) (corn (Zea mays) [13]; 500 g ai/ha): 100 | Galium plant response rating (0 to 100 scale) ([14]; 125 g ai/ha): 80 | Galium plant response rating (0 to 100 scale) ([14]; 500 g ai/ha): 80 | Foxtail, Green plant response rating (0 to 100 scale) ([15]; 125 g ai/ha): 90 | Foxtail, Green plant response rating (0 to 100 scale) ([15]; 500 g ai/ha): 90 | Horseweed plant response rating (0 to 100 scale) ([16]; 125 g ai/ha): 80 | Horseweed plant response rating (0 to 100 scale) ([16]; 500 g ai/ha): 90 | Kochia plant response rating (0 to 100 scale) (kochia (Bassia scoparia) [17]; 125 g ai/ha): 70 | Kochia plant response rating (0 to 100 scale) (kochia (Bassia scoparia) [17]; 500 g ai/ha): 70 | Oat, Wild plant response rating (0 to 100 scale) ([18]; 125 g ai/ha): 100 | Oat, Wild plant response rating (0 to 100 scale) ([18]; 500 g ai/ha): 100 | Amaranth, Palmer / Pigweed, Palmer plant response rating (0 to 100 scale) ([19]; 125 g ai/ha): 80 | Amaranth, Palmer / Pigweed, Palmer plant response rating (0 to 100 scale) ([19]; 500 g ai/ha): 100 | Ragweed plant response rating (0 to 100 scale) ([20]; 125 g ai/ha): 70 | Ragweed plant response rating (0 to 100 scale) ([20]; 500 g ai/ha): 80 | Ryegrass, Italian plant response rating (0 to 100 scale) ([21]; 125 g ai/ha): 90 | Ryegrass, Italian plant response rating (0 to 100 scale) ([21]; 500 g ai/ha): 90 | Soybean plant response rating (0 to 100 scale) (soybean (Glycine max) [22]; 125 g ai/ha): 70 | Soybean plant response rating (0 to 100 scale) (soybean (Glycine max) [22]; 500 g ai/ha): 90 | Wheat plant response rating (0 to 100 scale) ([23]; 125 g ai/ha): 70 | Wheat plant response rating (0 to 100 scale) ([23]; 500 g ai/ha): 80 | Plant response rating, Barnyardgrass (0 to 100 scale, 0 is no effect and 100 is complete control) [24]: 95 | Plant response rating, Ducksalad (0 to 100 scale, 0 is no effect and 100 is complete control) [25]: 90 | Plant response rating, Rice (0 to 100 scale, 0 is no effect and 100 is complete control) (rice (Oryza sativa)): 50 | Plant response rating, Sedge, Umbrella (0 to 100 scale, 0 is no effect and 100 is complete control) [26]: 90
